Results: PMC10376254, “Phytochemical and Bioactivity Studies on Hedera helix L. (Ivy) Flower Pollen and Ivy Bee Pollen” (Antioxidants, 2023)
“Also recorded” adds a separate entry of the source. Marks after values point to notes of the source that are not given here.

Key:
[1] = DPPH• assay (spectrophotometric antioxidant activity); details: trolox equivalents, n = 3, average ± SD
Experimental: The same range of concentration (1–2.5 mg/mL) of DSTSs was applied for DPPH, FRAP, CUPRAC and ABTS assays. […] The antioxidant activities were expressed as mg of trolox equivalents (TE) per g of hydroalcoholic extract (TE/g hydroalcoholic extract). […] Inhibition values (%) were calculated based on absorbances (A) measured against blank solutions by using the following formula:Inhibition (%): (1 − (ASample − ASample Blank)/(AControl − AControl Blank)) × 100.
Equal volumes (20 μL) of the DSTSs, trolox standard solutions (3.125–100 μg/mL) and methanol (as a blank) were placed in separate wells of a 96-well microplate, which was followed by the addition of DPPH solution (0.1 mM, 280 μL) to each well. After incubation in the dark at room temperature for 30 min, the absorbance was measured at 530 nm [30].

[2] = FRAP assay (ferric reducing antioxidant power); details: trolox equivalents, n = 3, average ± SD
Experimental: The same range of concentration (1–2.5 mg/mL) of DSTSs was applied for DPPH, FRAP, CUPRAC and ABTS assays. […] The antioxidant activities were expressed as mg of trolox equivalents (TE) per g of hydroalcoholic extract (TE/g hydroalcoholic extract).
FRAP solution was freshly prepared by mixing 1 volume of iron (III) chloride solution (2 × 10^−2 M), 1 volume of TPTZ solution (1 × 10^−2 M) and 10 volumes of sodium acetate buffer (pH 3.6) solution. FRAP solution (280 µL) and the DSTSs (20 µL) or trolox standard solutions (20 µL; 3.125–100 μg/mL) or water as a blank (20 µL) were added in separate wells of a 96-well microplate, and after 6 min the absorbance was measured at 593 nm [31].

ABTS assay = details: trolox equivalents, n = 3, average ± SD
Experimental: (§1) The antioxidant activities were expressed as mg of trolox equivalents (TE) per g of hydroalcoholic extract (TE/g hydroalcoholic extract).
ABTS assay [33] was slightly modified and then applied. Equal volumes (20 µL) of the DSTSs, trolox standard solutions (6.25–100 μg/mL) or methanol (as a blank) were placed in separate wells of a 96-well microplate plate, and ABTS reagent (280 µL) was added. The absorbance was measured at 734 nm, after incubating the well plate for 6 min at room temperature.

[3] = CUPRAC assay (cupric reducing antioxidant capacity); details: trolox equivalents, n = 3, average ± SD
Experimental: as §1
The CUPRAC method [32] was applied. Copper (II) sulfate pentahydrate (10 mM, 85 µL), neocuproine (7.5 mM, 85 µL) ammonium acetate buffer solution (85 µL, pH 7) and water (51 µL) were inserted in each well of a 96-well microplate. Then, either 43 µL of the DSTSs or trolox standard solutions (3.125–200 μg/mL) or water as a blank were added into each well. After incubation at room temperature for 30 min, the absorbance was measured at 450 nm.

xanthine oxidase (XO) [4] = target: T1, xanthine oxidase (XO) (Bos taurus, UniProt P80457); assay: Xanthine oxidase inhibitory activity (spectrophotometric); type: biochemical; details: for XO inhibitory activity (in words): spectrophotometric assay, at the applied concentrations (0.01–1 mg/mL)
T1 construct: purchased Sigma-Aldrich (Steinheim, Germany)
T1 sequence (P80457 2-1332 limits assumed): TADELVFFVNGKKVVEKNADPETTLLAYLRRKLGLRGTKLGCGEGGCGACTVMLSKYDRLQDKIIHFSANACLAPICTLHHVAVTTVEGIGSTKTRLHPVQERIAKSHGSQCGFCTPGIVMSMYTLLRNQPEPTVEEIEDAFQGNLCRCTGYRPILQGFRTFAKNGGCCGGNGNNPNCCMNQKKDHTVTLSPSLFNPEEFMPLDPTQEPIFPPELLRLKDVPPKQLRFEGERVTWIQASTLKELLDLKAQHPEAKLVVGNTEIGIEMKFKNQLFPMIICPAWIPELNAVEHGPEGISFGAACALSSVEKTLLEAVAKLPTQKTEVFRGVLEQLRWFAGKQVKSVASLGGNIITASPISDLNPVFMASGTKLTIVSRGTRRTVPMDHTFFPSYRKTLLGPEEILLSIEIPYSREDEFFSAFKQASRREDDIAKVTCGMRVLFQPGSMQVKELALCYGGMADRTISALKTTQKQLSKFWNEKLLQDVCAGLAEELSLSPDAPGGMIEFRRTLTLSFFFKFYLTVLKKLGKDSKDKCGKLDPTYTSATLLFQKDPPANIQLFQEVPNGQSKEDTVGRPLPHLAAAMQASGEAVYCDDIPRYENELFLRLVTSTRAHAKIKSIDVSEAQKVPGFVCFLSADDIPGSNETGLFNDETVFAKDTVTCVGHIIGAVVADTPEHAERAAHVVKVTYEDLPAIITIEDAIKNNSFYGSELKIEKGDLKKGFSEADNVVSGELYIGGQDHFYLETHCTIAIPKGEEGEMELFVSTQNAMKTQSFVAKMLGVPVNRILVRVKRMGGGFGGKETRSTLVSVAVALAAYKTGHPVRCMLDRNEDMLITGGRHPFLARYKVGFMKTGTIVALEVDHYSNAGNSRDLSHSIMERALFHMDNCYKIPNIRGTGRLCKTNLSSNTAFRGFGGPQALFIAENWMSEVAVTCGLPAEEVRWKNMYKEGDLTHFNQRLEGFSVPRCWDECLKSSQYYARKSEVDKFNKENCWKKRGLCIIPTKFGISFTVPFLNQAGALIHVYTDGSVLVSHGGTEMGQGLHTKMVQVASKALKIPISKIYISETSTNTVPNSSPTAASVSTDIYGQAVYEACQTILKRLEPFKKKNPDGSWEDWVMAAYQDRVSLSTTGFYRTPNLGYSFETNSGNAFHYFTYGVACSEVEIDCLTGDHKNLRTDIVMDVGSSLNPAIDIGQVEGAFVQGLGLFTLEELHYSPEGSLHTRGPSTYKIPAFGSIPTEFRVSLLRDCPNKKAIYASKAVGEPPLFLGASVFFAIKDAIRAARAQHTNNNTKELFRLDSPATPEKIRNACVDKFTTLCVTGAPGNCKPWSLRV
Experimental: Half-maximal inhibitory concentration values (IC50) were calculated for superoxide radical scavenging and XO inhibitory activity. Inhibition values (%) were calculated based on absorbances (A) measured against blank solutions by using the following formula:Inhibition (%): (1 − (ASample − ASample Blank)/(AControl − AControl Blank)) × 100.
Sodium phosphate buffer (50 mM, pH 7.5, 75 µL) was placed in the wells of a 96-well microplate; this was followed by the DSTSs in different concentrations (25 µL); followed by freshly prepared XO solution (0.2 U/mL in phosphate buffer solution, 25 µL); followed by water (25 µL). Incubation of the reaction mixture at 37 °C for 15 min was followed by the addition of a substrate solution (0.15 mM xanthine, 50 µL) into the mixture and incubation at 37 °C for 30 min until the reaction was terminated by the addition of hydrochloric acid (0.5 M, 50 µL). Finally, the absorbance was measured at 290 nm against a blank, containing all reagents, except the enzyme solution.

[5] = Superoxide radical scavenging (SOD) activity (xanthine/XO/NBT); type: biochemical; details: for SOD Activity IC50: enzymatic xanthine/XO/NBT, 560 nm, n = 3, ± SD, N.d. = Not detected
Experimental: Half-maximal inhibitory concentration values (IC50) were calculated for superoxide radical scavenging and XO inhibitory activity. Inhibition values (%) were calculated based on absorbances (A) measured against blank solutions by using the following formula:Inhibition (%): (1 − (ASample − ASample Blank)/(AControl − AControl Blank)) × 100. (1)
SOD activity was performed as described in Ref. [27]. […] After incubation at 37 °C for 20 min the reaction was terminated by hydrochloric acid (0.6 M, 80 µL) and absorption was measured at 560 nm against a blank solution containing all reagents except XO.

[6] = HPTLC-DPPH• effect-directed analysis; details: 0.4 µg on plate for compounds; STS 20 mg/mL, 2 and 5 µL
Experimental: HPTLC analyses were dipped into DPPH solution (0.1%) for 3 s using a Chromatogram Immersion Device III (Camag). The plates were left to dry in the air in the dark and were documented under white light after 30 min. The compounds having antioxidant activity appeared as yellow bands on the purple background.
The image of the HPTLC plate captured at white light illumination after HPTLC-DPPH analyses was for image analyses converted to a different format using WinCATS software (Camag) and then converted to videodensitograms in fluorescence mode using VideoScan TLC/HPTLC Evaluation Software (Version 1.02.00) (Camag).

xanthine oxidase (XO) [7] = assay: HPTLC-xanthine oxidase inhibitory activity (bioautography); type: biochemical; details: for HPTLC-XO zone detection (XO inhibitors as white/yellow zones on purple background): 8 µg on plate for compounds, samples 50 mg/mL, 2 and 5 µL, documented 0–120 min
Experimental: HPTLC analyses was immersed into a derivatization chamber with a mixture of phosphate buffer solution (pH 7.6) containing EDTA (1 mM), NBT (1 mM) and XO (0.1 U/mL), and incubated at 37 °C for 30 min in the dark. After drying in the air, the HPTLC plate was dipped into a phosphate buffer solution containing xanthine (1.5 mM) and incubated at 37 °C for 30 min in the dark. After drying in the air, the HPTLC plate was documented at white light in RT mode immediately (0 min), as well as at 5, 10, 15, 20, 30, 45, 60, 90, and 120 min, subsequently.
In HPTLC-XO inhibitory activity assay, the developed plate was dipped into a phosphate buffer solution containing xanthine and after incubation and drying was documented immediately (t = 0 min) and after 5, 10, 15, 20, 30, 45, 60, 90 and 120 min. Within this documentation interval, the plate was stored in the dark. The XO inhibitors were detected as white/yellow zones on a purple background (Figure 7).

[8] = spectrophotometric, 290 nm, n = 3, ± SD, N.d. = Not detected

| Compound | XO Inhibitory Activity IC50 (xanthine oxidase (XO) [4]; [8]) | IC50 (xanthine oxidase (XO) [4]; [8]) [µM] | XO inhibitory activity (in words) (xanthine oxidase (XO) [4]) | DPPH antioxidant activity [1] | FRAP antioxidant activity [2] | ABTS antioxidant activity (ABTS assay) | CUPRAC antioxidant activity [3] | SOD Activity IC50 [5] | HPTLC-DPPH intensity of yellow zone [6] | HPTLC-XO zone detection (XO inhibitors as white/yellow zones on purple background) (xanthine oxidase (XO) [7]) | SOD Activity IC50 ([5]; listed as allopurinol) [µg/mL] | SOD activity (in words) ([5]; spectrophotometric assay) | time at which the XO inhibition zone appeared on the HPTLC plate (xanthine oxidase (XO) [7]; 8 µg on plate) [min] |
| --- | --- | --- | --- | --- | --- | --- | --- | --- | --- | --- | --- | --- | --- |
| O=C(/C=C/c1ccc(O)c(O)c1)O[C@@H]1CC(O)(C(=O)O)C[C@@H](OC(=O)/C=C/c2ccc(O)c(O)c2)C1O (some centres unmarked) [3,5-Dicaffeoylquinic acid, 3,5-dicaffeoylquinic acid, reference compound] | 17.47 ± 2.23 ^c µg/mL |  |  | 665.53 ± 1.96 ^b mg TE/g | 542.36 ± 15.41 ^b mg TE/g | 701.64 ± 13.63 ^b mg TE/g | 760.83 ± 12.84 ^b mg TE/g | 5.87 ± 0.32 ^a µg/mL | slightly lower intensity | appeared immediately as yellow zones and lasted for 120 min |  |  |  |
| C[C@@H]1OC(Oc2c(-c3ccc(O)cc3)oc3cc(O)cc(O)c3c2=O)[C@H](O)[C@H](O)[C@H]1O (some centres unmarked) [Afzelin, kaempferol-3-O-rhamnopyranoside] |  |  |  | 149.35 ± 4.28 ^d mg TE/g | 58.54 ± 2.37 ^d mg TE/g | 104.71 ± 0.25 ^e mg TE/g | 171.40 ± 8.24 ^e mg TE/g | 20.61 ± 1.30 ^b µg/mL |  | appeared immediately as yellow zones and lasted for 120 min |  |  |  |
| Oc1ncnc2[nH]ncc12 [Allopurinol, allopurinol, reference compound] |  |  |  |  |  |  |  | 3.03 ± 0.10 ^a µg/mL |  | immediately as a white zone, which lasted for 120 min | 3.0 |  |  |
| O=C(/C=C/c1ccc(O)c(O)c1)O[C@@H]1C[C@](O)(C(=O)O)C[C@@H](O)[C@H]1O [Chlorogenic acid, chlorogenic acid, reference compound] |  | 35.8 |  |  |  |  |  |  |  | appeared immediately as yellow zones and lasted for 120 min |  |  |  |

Second part, led by results:

| XO Inhibitory Activity IC50 (xanthine oxidase (XO) [4]; [8]) | IC50 (xanthine oxidase (XO) [4]; [8]) [µM] | XO inhibitory activity (in words) (xanthine oxidase (XO) [4]) | Compound | DPPH antioxidant activity [1] | FRAP antioxidant activity [2] | ABTS antioxidant activity (ABTS assay) | CUPRAC antioxidant activity [3] | SOD Activity IC50 [5] | HPTLC-DPPH intensity of yellow zone [6] | HPTLC-XO zone detection (XO inhibitors as white/yellow zones on purple background) (xanthine oxidase (XO) [7]) | SOD Activity IC50 ([5]; listed as allopurinol) [µg/mL] | SOD activity (in words) ([5]; spectrophotometric assay) | time at which the XO inhibition zone appeared on the HPTLC plate (xanthine oxidase (XO) [7]; 8 µg on plate) [min] |
| --- | --- | --- | --- | --- | --- | --- | --- | --- | --- | --- | --- | --- | --- |
|  |  | no XO inhibitory activity | C[C@@H]1O[C@@H](Oc2c(-c3ccc(O)cc3)oc3cc(O)cc(O)c3c2=O)[C@H](OC(=O)/C=C/c2ccc(O)cc2)[C@H](OC(=O)/C=C/c2ccc(O)cc2)[C@H]1O [Platanoside] | 143.11 ± 1.31 ^d mg TE/g | 49.06 ± 0.91 ^de mg TE/g | 173.15 ± 0.86 ^d mg TE/g | 213.68 ± 8.41 ^d mg TE/g |  |  | weakest XO inhibition activity; also recorded: weak yellow zone |  | no SOD activity | 20 |
|  | 117 | low XO inhibitory activity | O=c1c(O[C@@H]2O[C@H](CO)[C@H](O)[C@H](O)[C@H]2O[C@@H]2O[C@H](CO)[C@@H](O)[C@H](O)[C@H]2O)c(-c2ccc(O)c(O)c2)oc2cc(O)cc(O)c12 [quercetin 3-O-β-glucopyranosyl-(1→2)-β-galactopyranoside] | 400.21 ± 11.78 ^c mg TE/g | 227.30 ± 2.65 ^c mg TE/g | 242.13 ± 5.88 ^c mg TE/g | 560.53 ± 14.74 ^c mg TE/g | 5.09 ± 0.36 ^a µg/mL |  | appeared immediately as yellow zones and lasted for 120 min |  |  |  |
